Experimental data taken from patent publication US8344017B2, “Anti-hepatitis C virus agents and anti-HIV agents” (Mitsubishi Corporation, priority 2003, dated 2013).
≈ marks a conversion by molar mass, not a printed value. Where two headings read alike, the source gives them in different places.

What was measured:
[1] = molecular target: HIV reverse transcriptase (Human immunodeficiency virus type 1 group M subtype B, UniProt P03366); assay: HIV reverse transcriptase inhibitory activity (32P-dTTP incorporation); format: biochemical; conditions: 1 hour at 37° C., pH 8.3
Protocol: The experiment was performed as follows in 50 mM Tris-HCl buffer (pH 8.3); to 10 μL of a reaction solution which had been prepared so as to contain 30 mM NaCl, 10 mM MgCl, 2.5 mM DTT, 1.25 μg/mL poly(rA). oligo(dT) 12-18, 250 nM dTTP, ^32P-dTTP (800 μCi/mmol), 1 μl of a sample dissolved in DMSO, 1 μl of HIV reverse transcriptase (0.01 U/mL) were added, and the total volume was made up to 20 μl. After the solution was incubated for 1 hour at 37° C., 10 μl of the reaction solution was placed on a Whatman DE81 filter, which was washed three times with Na2HPO4, once with 70% ethanol and once with ethanol. The dried filter was placed in a vial, and the radioactivity was counted by the liquid scintillation measurement method, which was assigned to the HIV reverse transcriptase activity.

S. eidermidis ATCC 14990 = assay: Antimicrobial activity, MIC; format: cell-based
Protocol: (§1) Each fullerene derivative or the like was dissolved in DMSO, then added to the culture medium of bacteria. Vancomycin is an antimicrobial agent used for drug resistant bacteria (Methicillin resistant strains, MRSA) which has been in trouble now. […] Among the regioisomers of the compound 2, 2t-2, 2t-3 and 2t-4, differences in the effects are observed in some degree depending on bacteria, however, there are no significant differences, and they have an antimicrobial activity substantially equivalent to that of vancomycin, and are also effective for MRSA. Furthermore, worthy of special mention is the fact that these fullerene derivatives and the like show an effective antimicrobial activity against also vancomycin-resistant bacteria (VRE). […] At present, vancomycin-resistant bacteria began to emerge, therefore, the compound 2 is expected to exert an effect on these.

E. hirae ATCC 8043 = assay: Antimicrobial activity, MIC; format: cell-based
Protocol: as §1

S. aureus M133 (MRSA) = assay: Antimicrobial activity, MIC; format: cell-based
Protocol: as §1

S. aureus 209P JC-1 = assay: Antimicrobial activity, MIC; format: cell-based
Protocol: as §1

S. aureus M126 (MRSA) = assay: Antimicrobial activity, MIC; format: cell-based
Protocol: as §1

[2] = tested on: E. faecalis NCTC 12201 (VRE); assay: Antimicrobial activity, MIC; format: cell-based
Protocol: as §1

E. faecium vanA (VRE) = assay: Antimicrobial activity, MIC; format: cell-based
Protocol: as §1

E. faecalis W-73 = assay: Antimicrobial activity, MIC; format: cell-based
Protocol: as §1

[3] = molecular target: T1, RNA polymerase of hepatitis C virus (Hepatitis C virus genotype 1a, UniProt P27958); assay: RNA polymerase activity of hepatitis C virus, inhibitory activity; format: biochemical
T1 construct: measuring RNA polymerase activity of hepatitis C virus
Text: (1) By using an experimental system for measuring RNA polymerase activity of hepatitis C virus (D. Dhanak et al., J. Biol. Chem., 277, 38322-[…] (2002)), its inhibitory activity was examined.
With regard to the foregoing compound 2, major regioisomers were separated and purified, however, with regard to others, bioactivities were investigated using mixtures.

T1 sequence (P27958 2421-3011): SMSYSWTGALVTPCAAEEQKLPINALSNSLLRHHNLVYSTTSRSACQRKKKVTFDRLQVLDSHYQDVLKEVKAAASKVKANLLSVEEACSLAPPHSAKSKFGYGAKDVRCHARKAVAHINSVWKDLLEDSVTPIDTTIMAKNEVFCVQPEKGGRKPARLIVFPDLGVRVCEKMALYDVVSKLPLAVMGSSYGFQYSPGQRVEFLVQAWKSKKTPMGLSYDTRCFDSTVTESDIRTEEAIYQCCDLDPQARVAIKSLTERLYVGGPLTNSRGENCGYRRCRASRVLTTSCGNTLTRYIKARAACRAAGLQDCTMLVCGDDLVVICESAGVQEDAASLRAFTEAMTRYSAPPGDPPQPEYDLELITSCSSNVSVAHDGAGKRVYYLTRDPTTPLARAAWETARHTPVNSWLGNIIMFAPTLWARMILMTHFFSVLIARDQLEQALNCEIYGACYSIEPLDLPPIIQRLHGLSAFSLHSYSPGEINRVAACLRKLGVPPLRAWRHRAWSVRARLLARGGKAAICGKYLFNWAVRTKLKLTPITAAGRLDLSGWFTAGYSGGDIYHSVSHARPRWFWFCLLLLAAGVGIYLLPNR

`CN1CC23c4c5c6c7c8c9c(c%10c%11c2c2c4c4c%12c5c5c6c6c8c8c%13c9c9c%10c%10c%11c%11c2c2c4c4c%12c%12c5c5c6c8c6c8c%13c9c9c%10c%10c%11c2c2c4c4c%12c5c6c5c8c9c%10c2c45)C73C1c1ccc[n+](C)c1` (stereo not shown) [compound 12] was tested, and the IC50 [1] was 5200 nM.
`C[N+]1(C)CC23c4c5c6c7c8c9c(c%10c%11c2c2c4c4c%12c5c5c6c6c8c8c%13c9c9c%10c%10c%11c%11c2c2c4c4c%12c%12c5c5c6c8c6c8c%13c9c9c%10c%10c%11c2c2c4c4c%12c5c6c5c8c9c%10c2c45)C73C1` (stereo not shown) [compound 9] was tested, and the IC50 [1] was 1600 nM.
`O=C(O)CN1CC23c4c5c6c7c8c9c(c%10c%11c2c2c4c4c%12c5c5c6c6c8c8c%13c9c9c%10c%10c%11c%11c2c2c4c4c%12c%12c5c5c6c8c6c8c%13c9c9c%10c%10c%11c2c2c4c4c%12c5c6c5c8c9c%10c2c45)C73C1C(=O)O` (stereo not shown) [compound 10] gave an IC50 [1] of 1000 nM.
Compound `CN[C@H](CC(C)C)C(=O)N[C@H]1C(=O)N[C@@H](CC(N)=O)C(=O)N[C@H]2C(=O)N[C@H]3C(=O)N[C@H](C(=O)N[C@H](C(=O)O)c4cc(O)cc(O)c4-c4cc3ccc4O)[C@H](O)c3ccc(c(Cl)c3)Oc3cc2cc(c3O[C@@H]2O[C@H](CO)[C@@H](O)[C@H](O)[C@H]2O[C@H]2C[C@](C)(N)[C@H](O)[C@H](C)O2)Oc2ccc(cc2Cl)[C@H]1O` [VCM, vancomycin, reference compound] has an MIC (S. eidermidis ATCC 14990) of 3120 µg/mL (≈ 2150 µM), an MIC (E. hirae ATCC 8043; Enterococcus hirae, ATCC8043) of 3120 µg/mL (≈ 2150 µM) and an MIC (S. aureus M133 (MRSA); Staphylococcus aureus, MRSA) of 1560 µg/mL (≈ 1080 µM). The MIC (S. aureus 209P JC-1; Staphylococcus aureus, 209P) was 1560 µg/mL (≈ 1080 µM) and the MIC (S. aureus M126 (MRSA); Staphylococcus aureus, MRSA) was 1560 µg/mL (≈ 1080 µM).
“C60-bis(N,N-dimethyl-2-hexylpyyrolidinium iodido) [compound 4]” showed an MIC (S. eidermidis ATCC 14990; S. eidermidis ATCC 14990) of 12500 µg/mL, an MIC [2] of 25000 µg/mL and an MIC (E. hirae ATCC 8043; E. hirae ATCC 8043) of 25000 µg/mL. The MIC (E. faecium vanA (VRE)) was 12500 µg/mL, the MIC (E. faecalis W-73) was 50000 µg/mL and the MIC (S. aureus M133 (MRSA); S. aureus M133 (MRSA)) was 12500 µg/mL. For the same compound, the MIC (S. aureus 209P JC-1; S. aureus 209P JC-1) was 6250 µg/mL, the MIC (S. aureus M126 (MRSA); S. aureus M126 (MRSA)) was 12500 µg/mL and the IC50 [1] was 800 nM.
Work on `O=C(O)CN1C(C(=O)O)C23c4c5c6c7c8c9c(c%10c%11c2c2c4c4c%12c5c5c6c6c8c8c%13c9c9c%10c%10c%11c%11c2c2c4c4c%12c%12c5c5c6c8c6c8c%13c9c9c%10c%10c%11c2c2c4c4c%12c5c6c5c8c9c%10c2c45)C73C1C(=O)O` (stereo not shown) [compound 8] yielded an IC50 [1] of 29 nM and an IC50 [3] of 2000 nM.
